Results taken from patent US8791079B2, “Methods for treating heart failure by inhibiting the mitochondrial sodium-calcium exchanger (mNCE)” (priority 2009, dated 2014).

Key:
Guinea pig hearts [1] = test: Oxygen consumption in isolated perfused hearts
Source text: (§1) Guinea pig hearts were quickly excised under anesthesia and mounted on a modified Langendorff apparatus attached to a Powerlab system (AD Instruments, Colorado Springs, Colo.). Hearts were perfused with gassed (95/5% O2/CO2) control buffer containing: 118-mM NaCl, 24-mM NaHCO3, 1.2-mM KH2PO4, 4.75-mM KCl, 1.2-mM MgSO4, 2.0-mM CaCl2, and 10-mM glucose. A buffer-filled latex balloon (Harvard apparatus) was inserted through the mitral valve into the left ventricle. Hearts were suspended in a buffer-filled heating chamber maintained at 37° C. and two electrodes were placed into the bath for volume-conducted electrocardiogram recordings. Heart rate, left ventricular developed pressure (LVDP), maximal rates of contraction and relaxation (±dP/dt), oxygen consumption, and electrocardiograms (ECG) were recorded on a computer. After a ten-minute equilibration period, hearts were subjected to the following protocol: ten-minute baseline recording while the heart was perfused with control buffer, ten-minute recording while 0.25-μM ouabain with or without 1 μM CGP-37157, and sixty-minute recording while hearts were stimulated with 25-nM isoproterenol. The measurements of hemodynamic parameters were determined by taking the average during the last two minutes before ouabain treatment (baseline) and for two minutes during the maximal effect on LVDP of either ouabain or isoproterenol.
Cardiac O2 concentration was measured with an O2 probe attached to a PowerLab system (AD Instruments). The probe was calibrated with 95% O2-saturated buffer as 100% and 100% N2-saturated buffer as 0%. The molar concentration of O2 consumption was calculated from percentage concentration with the following equation: VO2(μmol/min/g dwt)=CF×(0.02373/22.414)×((760−p)/760)×(ΔO2%/100)/dwt
where CF is coronary flow (mL/min); 0.02373 is the absorption coefficient of O2 in H2O at 37° C.; 22.414 is the volume (L) of 1 mol gas at STP; 760 is 1 atm in mm Hg; p equals 47.067, which is the vapor pressure of H2O at 37° C.; ΔO2% is the difference in O2 percentage concentration between inflow buffer collected from cannula before heart was mounted and outflow buffer collected from pulmonary artery; dwt is dry heart weight.

[2] = test system: Guinea pig ventricular myocytes; test: Mitochondrial NADH autofluorescence in isolated myocytes during 1-Hz stimulation; type: cell-based; details: 1-μM ouabain + 100-nM isoproterenol, without (ouabain) or with 1 μM CGP-37157; for NADH level before stimulation: before 1-Hz stimulation; for NADH level by the end of stimulation: end of 1-Hz stimulation (three minutes)
Procedure: Guinea pig ventricular myocytes were isolated by enzymatic digestion as described previously. O'Rourke, B., et al., “Oscillations of membrane current and excitability driven by metabolic oscillations in heart cells,” Science, 265(5174):962-966 (Aug. 12, 1994). Cells were suspended in Dulbecco's Modification of Eagle's Medium (DMEM) supplemented with 5% fetal bovine serum, 1% penicillin/streptomycin, and 15 mmol/L HEPES, pH 7.4, and stored in a 5% CO2 incubator at 37° C.
Cytosolic Ca^2+ ([Ca^2+]c), mitochondrial Ca^2+ ([Ca^2+]m), and [Na^+]i were measured with the fluorescent indicators indo-1, rhod-2, and sodium-binding benzofuran isophthalate (SBFI), respectively (Invitrogen, Carlsbad, Calif.), and mitochondrial NADH was measured as the cellular autofluorescence with 360-nm excitation/450-nm emission. Indo-1 was loaded into cell with the membrane permeable form, indo-1 AM. To minimize indo-1 loading into the mitochondrial compartment, cells were briefly incubated with indo-1 AM at room temperature for 20 min. Rhod-2 and SBFI experiments were carried out as previously described. Maack et al., supra, Liu and O'Rourke, supra. Cytoplasmic rhod-2 was eliminated by using rhod-2-free patch pipettes. Maack et al., supra, Liu and O'Rourke, supra. The ROS-sensitive fluorescent probe 5-(−6)-chloromethyl-2′,7′-dichlorohydrofluorescein diacetate (CM-H2DCFDA) was used to monitor the extent of oxidative stress, as previously described. Aon, M. A., et al., “Synchronized whole cell oscillations in mitochondrial metabolism triggered by a local release of reactive oxygen species in cardiac myocytes,” J. Biol. Chem., 278(45):44735-44744 (Nov. 7, 2003). This probe is primarily localized in the mitochondrial matrix, see Aon et al., supra, and is oxidized by hydrogen peroxide to yield fluorescent CM-DCF, thus indirectly reporting mitochondrial superoxide production.
Isolated ventricular myocytes were loaded into a heated field-stimulation chamber (Warner Instruments, Hamden, Conn.) at 37° C. on the stage of a fluorescence microscope (Nikon Eclipse TE300, Nikon Instruments, Inc., Melville, N.Y.). The myocytes were first superfused with control Tyrode's solution containing: NaCl (130 mmol/L), KCl (5 mmol/L), MgCl2 (1 mmol/L), Na-HEPES (10 mmol/L), CaCl2 (2 mmol/L), glucose (10 mmol/L), at pH 7.4. After one minute of recording in the absence of electrical stimulation in control buffer, 1-μM ouabain and 100-nM isoproterenol, with or without 1 μM CGP-37157, were added to buffer. After another five minutes of recording, myocytes were field-stimulated at 1 Hz for three minutes followed by a two-minute recording after returning to the resting state. To record [Ca^2+]m and action potentials, myocytes were whole-cell patch-clamped at 37° C. […]

Guinea pig hearts [3] = test: Hemodynamics of isolated perfused hearts (Langendorff)
Source text: as §1
In Table 1A-1C, hemodynamics of isolated perfused hearts were recorded at baseline, with ouabain treatment (1 μM), and with ouabain plus isoproterenol (100 nM) stimulation with or without CGP-37157 (1 μM). HR, heart rate; LVDP, left ventricular developed pressure; Oua: ouabain; CGP: CGP-37157; VF: ventricular fibrillation. *p<0.05 compared to group without CGP; † p<0.05 compared to baseline.

[4] = after ten minutes treatment of ouabain, without or with CGP-37157
[5] = 25-nM isoproterenol in ouabain-treated hearts, absence (isoproterenol) or presence of CGP-37157
[6] = at baseline, group with CGP-37157
[7] = ouabain application, without or with CGP-37157
[8] = with ouabain treatment (1 μM, 0.25-μM), −CGP = ouabain alone, +CGP = plus CGP-37157 1 μM
[9] = with ouabain treatment and isoproterenol stimulation, −CGP without, +CGP with CGP-37157 1 μM

SMILES	increase of whole-heart oxygen consumption (VO2) compared to baseline (Guinea pig hearts [1]; [4])	NADH level before stimulation [2]	NADH level by the end of stimulation [2]	increase of +dP/dt compared to baseline (Guinea pig hearts [3]; [7])	increase of −dP/dt compared to baseline (Guinea pig hearts [3]; [7])	+dP/dt (Guinea pig hearts [3]; [8])	HR (Guinea pig hearts [3]; [8])	LVDP (Guinea pig hearts [3]; [8])	−dP/dt (Guinea pig hearts [3]; [8])	+dP/dt (Guinea pig hearts [3]; [9])	HR (Guinea pig hearts [3]; [9])	LVDP (Guinea pig hearts [3]; [9])	further results
O=C1CSC(c2ccccc2Cl)c2cc(Cl)ccc2N1 (centres unmarked) [CGP-37157, 7-chloro-5-(2-chlorophenyl)-1,5-dihydro-4,1-benzothiazepin-2(3H)-one]	32%	78.3±3.2%	80.6±2.5%	approximately 36%	approximately 23%	3167 ± 481 †	250.0 ± 13.4	100.7 ± 12.0 †	−2306 ± 218 †	5530 ± 736 † *	306.7 ± 22.8 †	130.9 ± 18.4 †	increase of whole-heart oxygen consumption (VO2) compared to baseline (Guinea pig hearts [1]; ouabain followed by isoproterenol, without (isoproterenol) or with CGP-37157): 53%; increase of +dP/dt compared to the level with ouabain treatment (Guinea pig hearts [3]; [5]): 75%; increase of LVDP compared to the level with ouabain treatment (Guinea pig hearts [3]; [5]): 30%; increase of heart rate (HR) compared to the level with ouabain treatment (Guinea pig hearts [3]; [5]): 23%; increase of −dP/dt compared to the level with ouabain treatment (Guinea pig hearts [3]; [5]): 53%; +dP/dt (Guinea pig hearts [3]; [6]): 2326 ± 303; HR (Guinea pig hearts [3]; [6]): 239.3 ± 8.0; LVDP (Guinea pig hearts [3]; [6]): 91.9 ± 10.6; −dP/dt (Guinea pig hearts [3]; [6]): −1872 ± 163; −dP/dt (Guinea pig hearts [3]; [9]): −3518 ± 419 †
C[C@@H]1O[C@@H](O[C@H]2C[C@@H](O)[C@]3(CO)[C@H]4[C@H](O)C[C@]5(C)[C@@H](C6=CC(=O)OC6)CC[C@]5(O)[C@@H]4CC[C@]3(O)C2)[C@H](O)[C@H](O)[C@H]1O [ouabain, 1β,3β,5β,11α,14,19-Hexahydroxycard-20(22)-enolide 3-(6-deoxy-α-L-mannopyranoside, reference compound]	18%	81.7±1.8%	52.3±5.7%	20%	4%	2241 ± 376 †	246.3 ± 20.3	106.0 ± 17.0 †	−1855 ± 229 †	3529 ± 644 †	315.3 ± 25.0 †	100.4 ± 18.3	increase of LVDP compared to baseline (Guinea pig hearts [3]; [7]): 13%
